Structures are written as SMILES. Like-named read-outs stand apart in the source and are kept apart here.

Holding throughout (format): cell-based
The subject of assay [1] is anti-CD3-stimulated human T cells. Nature of the assay: Cytokine production by T cells (multi-plex CBA). The settings on record: for IL-10 production at high concentration: >10 nM; for concentrations that enhanced IL-2, IL-3, IL-5, IL-10, IL-13, GM-CSF, IFN-γ, TNF-α and RANTES: for compound I RANTES at 10 nM. The procedure: T cells were isolated from buffy coat by negative selection using the RosetteSep® T Cell Enrichment Cocktail. The manufacturer's procedures were followed accordingly. All 96-well plates were pre-coated with […] anti-human CD3 antibody in 100 μl 1×PBS for 4 hours at 37° C. The plates were washed three times with RPMI-1640 Complete Media prior to the T cell assay. T cells were then plated in CD3 pre-coated plates at a density of 2.5×10^5 cells/well in 180 μl RPMI-1640 Complete Media. The cells were treated with 20 μl 10× titrated compounds at 10, 1, 0.1, 0.01, 0.001, 0.0001 and 0.00001 μM. Final DMSO concentrations were 0.25%. The plates were incubated for 48 hours at 37° C., 5% CO2. After 48 hours, the supernatants were harvested and tested by a multi-plex cytometric bead array (CBA) assay for the following cytokines/chemokines: IL-2, IL-3, IL-5, IL-10, IL-13, IL-15, IL-17a, GM-CSF, G-SCF, IFN-γ, TNF-α and RANTES. The CBA plates were analyzed on the Luminex IS100 instrument. Data from each donor was graphed using GraphPad Prism 5.0 software and expressed as mean pg/mL±SEM and % of DMSO control±SEM.

For assay [2], the system named is Human umbilical vascular endothelial cells. Nature of the assay: Growth factor-induced HUVEC proliferation assay. The settings on record: for IC50: Homo sapiens, Endothelial cell. The procedure:
Human Umbilical Vascular Endothelial Cells Proliferation Assay: Human umbilical vascular endothelial cells were thawed and grown in EGM2 medium until passage 3 to 6 for all proliferation assays. Human umbilical vascular endothelial cells were trypsinized, washed with 20% FBS/M199 medium and plated with the same medium at 10^4 cells/100 μL per well to 96-well cell culture plates. The plates were incubated overnight at 37° C. to allow cells to adhere. The cells were then starved in 1% FBS/M199 medium for 18 hours after washing with the same medium 3 times. For optimization of the concentration of the growth factors in the HUVEC proliferation assay, 100 µL/well of the 2× serial diluted growth factors, starting at 100 ng/mL, were added to HUVECs in duplicate for 72 hours at 37° C. in a humidified cell culture incubator with 5% CO2. For analysis of test compounds, a serial dilution of the test compounds in 0.4% DMSO/1% FBS/M199 medium in duplicate was made from the 10 mM stock. Fifty microliters per well of the serially diluted test compounds (10, 1.0, 0.1, 0.01, 0.001, 0.0001, 0.00001 μM) were added to the cells for 1 to 2 hours at 37° C. The final DMSO concentration in the cells is 0.1%. Then 50 μL of 4× final concentration of relative growth factors was added to each well in duplicate for 72 hours at 37° C. in a humidified cell culture incubator with 5% CO2. Thymidine incorporation was measured by adding one microcurie of 3H-thymidine (Amersham) in 20 μL medium to each well and incubated at 37° C. in a humidified cell culture incubator with 5% CO2 for 5 to 6 hours. The cells were then trypsinized and harvested onto UniFilter GF/C filter plates (Perkin Elmer) by using the cell harvester (Tomtec). After the plates were air dried, 20 μL/well of Microscint 20 (Packard) was added then the plates were analyzed in TopCount NXT (Packard). Each well was counted for one minute. The experiments were performed in duplicate in each of 3 donors.
(§1) The percentage inhibition of cell proliferation, tube formation, migration, and invasion was calculated by subtracting the result for unstimulated DMSO control from test sample results, averaging all replicates, and normalizing to the growth factor-stimulated DMSO control (0% inhibition). The IC50 values were calculated by using GraphPad Prism 5.0.

Assay [3] has the same test system. Nature of the assay: Growth factor-induced HUVEC tube formation assay. The settings on record: for VEGF-induced HUVEC tube formation (tube length and tube area): VEGF 25 ng/mL. As to the method:
Human Umbilical Vascular Endothelial Cell Tube Formation Assay: Compounds were tested in the growth factor-induced HUVEC tube formation assay. The tube formation plates were incubated at 37° C. for 30 minutes for matrigel to polymerize. The HUVECs were starved in 0.1% BSA basal EBM2 medium for 5 hours after washing with the same medium 3 times. The cells were trypsinized and centrifuged. Then 25 μL of 4× serially diluted compounds (10, 1, 0.1, 0.01, 0.001, 0.0001, 0.00001 μM) were added in duplicate with 50 μL of 2×10^4 cells/well to tube formation plates coated with matrigel. […] of 4×VEGF (final concentration=25 ng/mL) or bFGF (final concentration=10 ng/mL) were added to the plates. The cells were then incubated overnight (˜18 hours) at 37° C. in a humidified incubator. The tubule webs were stained with calcein AM at 4 g/L in 2% FBS/IBSS for 30 minutes and images taken by fluorescence microscopy. The tubules were quantified by the MetaMorph tube formation software program for tube area and tube length.
as §1

In assay [4] the test system is megakaryocyte progenitor cells (normal human bone marrows). Put plainly: Megakaryocyte colony formation assay. As to conditions: for IC50: Homo sapiens, 14-16 days. As to the method:
Colony formation assay was conducted with normal human bone marrows treated in semi-solid collagen matrix with compound/IL-3/IL-6/Tpo for 14-16 days, and the results are summarized in Table 7.

The test system of the next assay is rat aorta. Nature of the assay: Rat aorta assay. The procedure:
Compounds I, I-R, and I-S were tested in various angiogenesis inhibition assays.

The mark [5] stands for this setting: read-out: bFGF (10 ng/mL) IC50 Values, bFGF-induced proliferation.
The mark [6] stands for this setting: HGF-induced proliferation, read-out: HGF (25 ng/mL) IC50 Values.
[7] abbreviates: VEGF-induced proliferation, read-out: VEGF (25 ng/mL) IC50 Values.
The mark [8] stands for this setting: Bone Marrow ID 0090128, read-out: Immature Colony IC50.
The mark [9] stands for this setting: Bone Marrow ID 0090128, read-out: Intermediate Colony IC50.
[10] abbreviates: Bone Marrow ID 0090616, read-out: Immature Colony IC50.
[11] abbreviates: Bone Marrow ID 0090616, read-out: Intermediate Colony IC50.
Setting [12] is: Bone Marrow ID 0090714, read-out: Immature Colony IC50.
Where [13] appears, read: Bone Marrow ID 0090714, read-out: Intermediate Colony IC50.

In the case of `O=C1CC[C@H](N2Cc3c(OCc4ccc(CN5CCOCC5)cc4)cccc3C2=O)C(=O)N1` [Compound I-S, (S)-3-(4-((4-(morpholinomethyl)benzyl)oxy)-1-oxoisoindolin-2-yl)piperidine-2,6-dione], in assay [1], the “concentration at which enhancement of IL-5 production peaked” value stood at 1 nM. Besides, in assay [1] (1 nM), the “IL-5 production, times over that of control cells” value came to 6 times. In addition, the “GM-CSF production, times those of control cells” value (“GM-CSF production, times those” below) in assay [1] (10 nM) was found to be 5 times. Also, in assay [1] (10 nM), the “IL-2 production, times those of control cells” value (“IL-2 production, times those” below) is 18 times. Moreover, in assay [1] (10 nM), the “IL-13 production, times those of control cells” value (from here on “IL-13 production, times those”) amounted to 7 times. In addition, the “IL-10 production at high concentration” value in assay [1] was “inhibited”. Also, the “concentrations that enhanced IL-2, IL-3, IL-5, IL-10, IL-13, GM-CSF, IFN-γ, TNF-α and RANTES” value in assay [1] is listed as not below 1 nM. Besides, the “inhibition of VEGF-, bFGF-, or HGF-induced HUVEC proliferation” value in assay [2] is given as “did not inhibit”. The IC50 is 52 µM in assay [2] (setting [5]); 51 µM in assay [2] (setting [6]); more than 100 µM in assay [2] (setting [7]); 0.08 µM in assay [4] (setting [8]); 9.2 µM in assay [4] (setting [9]); 0.04 µM in assay [4] (setting [10]). Further, the IC50 in assay [4] (setting [11]) was 0.65 µM; in assay [4] (setting [12]), 0.05 µM; in assay [4] (setting [13]), 0.86 µM. The “concentrations with significant enhancement of proliferation” value in assay [2] (VEGF-treated HUVECs) was 1 to 10 µM. Moreover, the “VEGF-induced HUVEC tube formation (tube length and tube area)” value (“VEGF-induced HUVEC tube formation” below) in assay [3] is on record as “trend toward inhibiting”. Besides, the “effect on megakaryocyte progenitor cells” value in assay [4] was “inhibited megakaryocyte progenitor cells”. In the assay with rat aorta, the “anti-angiogenic activity in rat aorta assay” value (“anti-angiogenic activity” for short) was “modest anti-angiogenic activity”.
In the case of `O=C1CC[C@@H](N2Cc3c(OCc4ccc(CN5CCOCC5)cc4)cccc3C2=O)C(=O)N1` [Compound I-R, (R)-3-(4-((4-(morpholinomethyl)benzyl)oxy)-1-oxoisoindolin-2-yl)piperidine-2,6-dione], the “GM-CSF production, times those” value in assay [1] (10 nM) is 6 times. Besides, in assay [1] (10 nM), the “IL-2 production, times those” value is given as 15 times. Besides, the “IL-13 production, times those” value in assay [1] (10 nM) is 7 times. In assay [1] (0.01 to 1 nM), the IL-10 production enhancement is listed as approximately 6 fold. For the same compound, in assay [1] (1 to 100 nM), the “IL-5 production, times that of control cells” value was “up to 2.5 times”. For the same compound, in assay [1], the “IL-10 production at high concentration” value is “inhibited”. Besides, the “concentrations that enhanced IL-2, IL-3, IL-5, IL-10, IL-13, GM-CSF, IFN-γ, TNF-α and RANTES” value in assay [1] is listed as not below 1 nM. In addition, in assay [2], the “inhibition of VEGF-, bFGF-, or HGF-induced HUVEC proliferation” value is “did not inhibit”. Further, the IC50 was 76 µM in assay [2] (setting [5]); 38 µM in assay [2] (setting [6]); more than 100 µM in assay [2] (setting [7]); 10 µM in assay [4] (setting [8]); more than 10 µM in assay [4] (setting [9]); 0.4 µM in assay [4] (setting [10]). Besides, the IC50 in assay [4] (setting [11]) is more than 10 µM; in assay [4] (setting [12]), 0.4 µM; in assay [4] (setting [13]) it was more than 10 µM. Moreover, the “VEGF-induced HUVEC tube formation” value in assay [3] is on record as “trend toward inhibiting”. Also, the “inhibition of tube area and length” value in assay [3] (VEGF-induced, 10 μM, p<0.05 vs stimulated DMSO control) is listed as “significant inhibition”. The “anti-angiogenic activity” value with rat aorta is listed as “modest anti-angiogenic activity”.
Turning to `O=C1CCC(N2Cc3c(OCc4ccc(CN5CCOCC5)cc4)cccc3C2=O)C(=O)N1` (racemic) [Compound I, 3-(4-((4-(morpholinomethyl)benzyl)oxy)-1-oxoisoindolin-2-yl)piperidine-2,6-dione], the “concentration at which enhancement of IL-5 production peaked” value in assay [1] is 1 nM. Besides, the “GM-CSF production, times those” value was 3 times in assay [1] (1 nM) and 6 times in assay [1] (10 nM). The “IL-2 production, times those” value amounted to 7 times in assay [1] (1 nM) and 22 times in assay [1] (10 nM). The “IL-5 production, times over that of control cells” value in assay [1] (1 nM) was 6 times. Further, the “IL-13 production, times those” value in assay [1] (1 nM) was found to be 5 times; in assay [1] (10 nM), 6.5 times. Moreover, the IL-5 production enhancement in assay [1] (10 nM) is recorded as not above 2 fold. Besides, the “IL-10 production at high concentration” value in assay [1] is “inhibited”. Besides, in assay [2], the “inhibition of VEGF-, bFGF-, or HGF-induced HUVEC proliferation” value was “did not inhibit”. The IC50 in assay [2] (setting [5]) is 99 µM; in assay [2] (setting [6]), 24 µM; in assay [2] (setting [7]), more than 100 µM; in assay [4] (setting [8]), 0.1 to 1 µM; in assay [4] (setting [9]) it was more than 10 µM; in assay [4] (setting [10]) it was 0.06 µM. Further, the IC50 was more than 10 µM in assay [4] (setting [11]), 0.05 µM in assay [4] (setting [12]) and more than 10 µM in assay [4] (setting [13]). In assay [2] (bFGF-treated HUVECs), the “concentrations with significant enhancement of proliferation” value lay within 0.01 to 1 µM. For the same compound, the “VEGF-induced HUVEC tube formation” value in assay [3] is on record as “trend toward inhibiting”. For the same compound, the “anti-angiogenic activity” value in the assay with rat aorta was “modest anti-angiogenic activity”.
